The text below walks through data of ChEMBL document CHEMBL5034039, “Discovery of Novel, Orally Bioavailable Pyrimidine Ether-Based Inhibitors of ELOVL1” (J Med Chem, 2021).

Data set [1] can be described thus: Intrinsic clearance in rat hepatocytes assessed per million cells. It counts as ADME, cell-based, Hepatocyte. Conditions: read-out: CLH.
Data set [2] can be described thus: Lipophilicity, logD of the compound at pH 7.4. The class given is physicochemical. The following applies: buffer.
Data set [3] concerns the target T1, Very long chain fatty acid elongase 1 (Homo sapiens, UniProt Q9BW60).
T1 sequence (Q9BW60 whole entry): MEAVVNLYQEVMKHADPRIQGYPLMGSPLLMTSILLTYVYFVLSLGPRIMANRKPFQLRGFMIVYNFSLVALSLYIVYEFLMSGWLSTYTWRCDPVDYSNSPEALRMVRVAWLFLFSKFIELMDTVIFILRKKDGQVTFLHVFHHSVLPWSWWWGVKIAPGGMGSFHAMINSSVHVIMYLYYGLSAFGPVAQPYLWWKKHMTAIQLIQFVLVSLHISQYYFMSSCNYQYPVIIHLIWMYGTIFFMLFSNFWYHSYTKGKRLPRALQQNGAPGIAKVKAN
Nature of the data set: Inhibition of ELOVL1 in HEK293 cells assessed as reduction of C26:0 lipo phosphatidyl choline synthesis. The class given is cell-based.

Data set [4] addresses T1, Very long chain fatty acid elongase 1. The experiment in a line: Inhibition of ELOVL1 (unknown origin).
Data set [5] in a line: Reduction in C26:0/C16:0 LPC level in ABCD1 knock out mouse CNS at 10 mg/kg, po qd and measured after 3 months relative to control. It counts as functional. Further details: scale not given: the % may be the effect or the level left. Conditions: 2190 h.
Data set [6] in a line: Reduction in C26:0/C16:0 LPC level in ABCD1 knock out mouse CNS at 10 mg/kg, po qd and measured after 8 months relative to control. The class given is functional. Further details: scale not given: the % may be the effect or the level left. The following applies: 5840 h.

SMILES strings stand for the structures.

As to `Cc1ccnn1CCCOc1cc(N2CCCCC2)ncn1`, in data set [1], the hepatocyte CLint was determined as 184 µL/min/1e6 cells. In addition, in data set [2], the log distribution coefficient (logD) worked out at 3.2. Besides, in data set [3], the IC50 stood at 7 nM.

Take `c1ccc([C@H]2CN(c3cc(O[C@H]4C[C@@H](n5ccnn5)C4)ncn3)CCO2)cc1`: in data set [1], the hepatocyte CLint turned out to be 14 µL/min/1e6 cells. In data set [2], this molecule came in with a pH-dependent lipophilicity (logD) of 2.9. Moreover, the IC50 in data set [3] came to 9 nM.

As for `Cc1ccnn1CCCOc1cc(N2CCOC3(COC3)C2)ncn1`, the hepatocyte CLint in data set [1] amounted to 13 µL/min/1e6 cells. Besides, the pH-dependent lipophilicity (logD) in data set [2] was 1.6. Also, the concentration for half-maximal inhibition (IC50) in data set [3] is 120 nM.

`Fc1ccc(CCOc2cc(N3CCCCC3)ccn2)cc1`: the IC50 in data set [4] is 860 nM; in data set [3], 440 nM.

Regarding `c1ccc([C@H]2CN(c3cc(O[C@H]4C[C@@H](c5ccccc5)C4)ncn3)CCO2)cc1`, the hepatocyte CLint in data set [1] was 11 µL/min/1e6 cells. In data set [2], this molecule gave a logD of 5.7. The 50% inhibitory concentration (IC50) in data set [3] was 15 nM.

Regarding `Fc1cnn([C@H]2C[C@H](c3cc(O[C@H]4C[C@@H](n5cccn5)C4)ncn3)C2)c1`, the hepatocyte CLint in data set [1] came to 9.2 µL/min/1e6 cells. In addition, in data set [2], the pH-dependent lipophilicity (logD) stood at 3.1. For the same molecule, the IC50 in data set [3] is 0.6 nM.

As to `c1ccc([C@H]2CN(c3cc(O[C@H]4C[C@@H](c5nnco5)C4)ncn3)CCO2)cc1`, the hepatocyte CLint in data set [1] came to 8 µL/min/1e6 cells. In addition, the logD in data set [2] came out at 2.8. In addition, the IC50 in data set [3] worked out at 9 nM.

Regarding `Clc1ccn([C@H]2C[C@H](c3cc(O[C@H]4C[C@@H](n5cccn5)C4)ncn3)C2)n1`, the hepatocyte CLint in data set [1] came to 12 µL/min/1e6 cells. The molecule also registered a logD in data set [2] of 3.5. Further, in data set [3], the 50% inhibitory concentration (IC50) is 2 nM.

Consider `Fc1ccc(CCOc2cc(N3CCCCC3)ncn2)cc1`, for which the values for the half-inhibitory concentration (IC50) in data set [4] and in data set [3] were 220 nM and 80 nM, respectively. In addition, the hepatocyte CLint in data set [1] amounted to 139 µL/min/1e6 cells.

In the case of `c1cnn([C@H]2C[C@@H](Oc3cc([C@H]4C[C@@H](n5cccn5)C4)ncn3)C2)c1`, in data set [1], the hepatocyte CLint came out at 12 µL/min/1e6 cells. Also, the logD in data set [2] is 2.6. Further, the half-inhibitory concentration (IC50) in data set [3] was 210 nM.

`Fc1ccc(CCOc2cc(N3CCCCCC3)ncn2)cc1`: the hepatocyte CLint in data set [1] is 273 µL/min/1e6 cells. The molecule further displayed a pH-dependent lipophilicity (logD) in data set [2] of 5.3. The IC50 in data set [3] came to 230 nM.

On to `Fc1ccc(CCOc2ccc(-c3cccnc3)cn2)cc1`, for which the IC50 in data set [4] stood at 21000 nM; in data set [3], 6700 nM.

In the case of `CN(C)c1cc(OCCc2ccc(F)cc2)ncn1`, in data set [1], the hepatocyte CLint came out at 539 µL/min/1e6 cells. This molecule also gave a log distribution coefficient (logD) in data set [2] of 3.6. For the same molecule, the half-inhibitory concentration (IC50) in data set [3] was 60 nM.

`Fc1ccc(CCOc2cc(N3CCCC3)ncn2)cc1`: in data set [1], the hepatocyte CLint turned out to be 273 µL/min/1e6 cells. Besides, the log distribution coefficient (logD) in data set [2] was found to be 3.9. For the same molecule, the half-maximal inhibitory concentration (IC50) in data set [3] was 430 nM.

Turning to `c1cnn([C@H]2C[C@@H](Oc3cc([C@H]4C[C@H](n5cccn5)C4)ncn3)C2)c1`, the hepatocyte CLint in data set [1] is 5.6 µL/min/1e6 cells. The log distribution coefficient (logD) in data set [2] was 2.6. Moreover, the IC50 in data set [3] is 10 nM.

Turning to `Cc1ccnn1CCCOc1cc(N2CCOC(c3ccnn3C)C2)ncn1` (stereo unspecified), the hepatocyte CLint in data set [1] was 23 µL/min/1e6 cells. The same molecule had a logD in data set [2] of 2.1. In data set [3], the IC50 was found to be 140 nM.

Turning to `Cc1ccnn1CCCOc1cc(N2C3COCC2C3)ncn1`, in data set [1], the hepatocyte CLint amounted to 40 µL/min/1e6 cells. In data set [2], this molecule registered a logD of 1.3. Besides, the IC50 in data set [3] amounted to 230 nM.

Turning to `Cc1ccnn1CCOc1cc(N2CCCCC2)ncn1`, the hepatocyte CLint in data set [1] is 366 µL/min/1e6 cells. The same molecule had a pH-dependent lipophilicity (logD) in data set [2] of 2.8. Besides, in data set [3], the IC50 stood at 140 nM.

In the case of `Fc1ccn([C@H]2C[C@H](c3cc(O[C@H]4C[C@@H](n5cccn5)C4)ncn3)C2)n1`, the hepatocyte CLint in data set [1] came to 8.4 µL/min/1e6 cells. This molecule also showed a pH-dependent lipophilicity (logD) in data set [2] of 3.1. Besides, the IC50 in data set [3] turned out to be 0.3 nM.

For `Cc1ccnn1CCCOc1cc(N2CCOC(C(F)(F)F)C2)ncn1` (stereo unspecified), the hepatocyte CLint in data set [1] was found to be 194 µL/min/1e6 cells. The same molecule displayed a logD in data set [2] of 2.9. Besides, the IC50 in data set [3] turned out to be 7 nM.

As for `Fc1ccc(CCOc2cc(N3CCCOCC3)ncn2)cc1`, the hepatocyte CLint in data set [1] amounted to 144 µL/min/1e6 cells. The same molecule had a log distribution coefficient (logD) in data set [2] of 3.4. The IC50 in data set [3] is 3 nM.

`Fc1ccc(CCOc2cc(N3CCOCC3)ncn2)cc1`: the hepatocyte CLint in data set [1] is 137 µL/min/1e6 cells. This molecule also displayed a log distribution coefficient (logD) in data set [2] of 3.3. Also, the IC50 in data set [3] stood at 12 nM.

`CN(c1cc(OCCc2ccc(F)cc2)ncn1)C1CCOC1` (stereo unspecified): the hepatocyte CLint in data set [1] was 327 µL/min/1e6 cells. The log distribution coefficient (logD) in data set [2] was 3.6. Besides, the IC50 in data set [3] came out at 60 nM.

Regarding `c1ccc([C@H]2CN(c3cc(O[C@H]4C[C@@H](c5ncco5)C4)ncn3)CCO2)cc1`, the hepatocyte CLint in data set [1] worked out at 17 µL/min/1e6 cells. The pH-dependent lipophilicity (logD) in data set [2] turned out to be 3.9. In addition, in data set [3], the IC50 turned out to be 5 nM.

In data set [4], `Fc1ccc(CCOc2cc(-c3cccnc3)ccn2)cc1` registered a concentration for half-maximal inhibition (IC50) of more than 20000 nM.

With `Cc1ccnn1CCCOc1cc(N2CCOC(c3ccccc3)C2)ncn1` (stereo unspecified), the hepatocyte CLint in data set [1] amounted to 111 µL/min/1e6 cells. The logD in data set [2] was determined as 3.8. In data set [3], the IC50 stood at 7 nM.

`O=C(Nc1ccn(-c2ccnc(F)c2)n1)C1(c2ccccc2F)CC1`: the Activity in data set [5] was found to be 34%; in data set [6] it was 65%.

By logD is commonly meant lipophilicity at a set pH, counting ionised and neutral species. For orientation: IC50 means the concentration that gives 50% inhibition.
